Assay results published in patent publication US7652149B2, “Crystalline pyrazoles” (Pharmacia & Upjohn Company LLC, priority 2004, dated 2010).

Experiment: Suspension crystallization: relative thermodynamic stability of Forms I and II, Tt bracketed
Assay type: physicochemical
Settings: for temperature at which the form is the equilibrium solid phase (thermodynamically more stable): mixture of Forms I and II suspended in toluene, at least three days, PXRD
Text: In this Example, the transition temperature between Forms I and II is described. Form I and Form II are enantiotropic, which means that one polymorph is stable at temperatures below a transition temperature, Tt, but the other polymorph is stable at temperatures above Tt. The two solid phases have equal free energies at the transition temperature. Knowledge of the thermodynamic stability relationship is necessary for the selection of suitable crystallization conditions to produce Form I, and for formulation development and commercial manufacturing. It is important to determine Tt for the preparation and processing of bulk drug.
Materials. The Form I sample used in this study was 100% pure when tested by HPLC. Form II was prepared by heating Form I to 155° C. for 3 days in a dry oven and cooled to room temperature. This Form II sample was free of chemical degradation when tested by HPLC.
Methods. Suspension crystallization. The relative stability relationship between Forms I and II at a specific temperature was bracketed by suspending a mixture of the two polymorphs in toluene in a closed glass vial that was equilibrated at the temperature of interest. Excess solid of one polymorph was first added to saturate toluene in a glass vial at the chosen temperature. The other polymorph was added at least half an hour later. The suspension was stirred continuously for at least three days. A portion of the suspension was withdrawn and immediately filtered. The filtered solid was analyzed using PXRD to identify the equilibrium solid at that temperature. […] By repeating the experiment at different temperatures, the Tt was bracketed.

Row | temperature at which the form is the equilibrium solid phase (thermodynamically more stable) | Compound | relative stability of the crystal form (ambient temperature and pressure)
1 | ≤ 71.0 °C | NS(=O)(=O)c1ccc(-n2nc(C(F)(F)F)cc2-c2ccc(F)cc2)cc1 [Form I, 4-[5-(4-fluorophenyl)-3-(trifluoromethyl)-1H-pyrazol-1-yl]-benzenesulfonamide] | –
2 | ≥ 71.5 °C | NS(=O)(=O)c1ccc(-n2nc(C(F)(F)F)cc2-c2ccc(F)cc2)cc1 [Form II, 4-[5-(4-fluorophenyl)-3-(trifluoromethyl)-1H-pyrazol-1-yl]-benzenesulfonamide] | unstable with respect to another form, Form I
